In US6858646B2, “Neuroprotective composition and uses thereof” (Universite du Quebec a Montreal, priority 1999, dated 2005):

How the values were obtained:
[1] = test system: P19 neurons; format: cell-based; settings: for Protection against oxidative stress caused by hydrogen peroxide: assayed at 0.5× suboptimal concentration, 0 to 10 mM H2O2, 30 min
Protocol: Culture and neuronal differentiation of P19 embryonal carcinoma cells were done according to the procedures of Jeannotte et al. (1997) with the following modifications for microscale adaptation of cultures to 96-well plates: cell aggregates obtained at day 4 of the treatment of P19 cells with retinoic acid were trypsinized with 0.025% trypsin-1 mM EDTA in PBS and subjected to mechanical passages to obtain individual cells which were seeded in gelatin-precoated microwells at a density of 0.7-1×10^5 cells per well. The newly seeded cells (neurons) were cultured in supplemented Neurobasal medium (Neurobasal® containing 0.5 mM L-glutamine and 0.5% B27 supplement) until exposure to oxidative conditions at day 7. Because this defined serum-free medium sustains growth of P19 neurons (Yao et al., 1995) but discourages the proliferation of fibroblasts, another cell derivative of the differentiation of P19 cells with retinoic acid (McBurney, 1993; Jeannotte et al., 1997), the cell populations in microwells were composed mostly of neurons (≦95%).
The prooxidant systems tested with P19 neurons were XA/XAO, H2O2, and H2O2/Fe^+2. Before neurons were exposed to either one of these systems, they were carefully washed with PBS and then incubated at 37° C., in an atmosphere of 95% ambient air and 5% CO2, and in the specific conditions of each system, as follows: i) from 0 to 90 min in the presence of PBS containing 500 μM XA and 50 mU/ml XAO, with the enzyme added last to start the reaction; ii) for 30 min in the presence of PBS containing 0 to 10 mM H2O2 with peroxide added last; and iii) for 30 min in the presence of PBS containing 0 to 10 mM H2O2 plus 50 μM FeCl2, with peroxide added last. Conditions were initially taken from Cini et al. (1994) for XA/XAO, from Desagher et al. (1996) for H2O2, and from Takemura et al. (1994) for H2O2/Fe^+2 systems respectively, and adapted to produce dose- or time-dependent cell mortality in P19 neurons. The first studies done with the H2O2/Fe^2+ system included the addition of 500 μM ascorbic acid; however, since responses of P19 neurons were similar whether or not ascorbic acid was present, this vitamin was omitted in subsequent experiments.
When TRIAD or its components were tested for their antioxidant action, they were administered to cells just prior the addition of XAO or H2O2. After incubation of cells under oxidative conditions, the prooxidant medium was removed and replaced with 200 μl of supplemented Neurobasal-minus AO (Neurobasal® containing L-glutamine and the B27-minus AO supplement). B27-minus AO is a version of B27 supplement sold by Gibco-BRL from which normally present antioxidants (AO=vitamin E, catalase, SOD and GSH) have been removed. Cells were incubated in this Neurobasal-minus AO medium for 16 h, at 37° C., 5% CO2, and for a further 7 h in the same medium but in the presence of Alamar Blue for viability measurement.
(§1) Fifteen (15) μl Alamar Blue was added to the culture medium of each well (200 μl) and incubation resumed for 7 h at 37° C., 5% CO2. A 180-μl aliquot of each culture medium was read by fluorescence using a wavelength of 544 nm for excitation and of 590 nm for emission; fluorescence increases upon reduction of the dye by metabolic activity of viable cells. Fluorescence determinations were done with a fluorimeter adapted to read microplates. Viability is reported as %, comparing the fluorescence units obtained for cells exposed to oxidative conditions to those of control (non-exposed) cells.

[2] = In vitro antioxidant capacity: inhibition of DPD oxidation by H2O2, in absence of cells
Protocol: Oxidation of N,N-diethyl-p-phenylenediamine (DPD) by a prooxidant system was used as a general reporter of the amount of ROS generated by that system (Anonymous, 1985; Chahine et al., 1991). Antioxidant capacity of preparations of TRIAD (or of its components) was defined as the ability to inhibit the oxidation of DPD by prooxidants.
To estimate the antioxidant capacity of TRIAD preparations in the prooxidant conditions used with P19 neurons, DPD was added to a final concentration of 32 mM to 200 μl of each prooxidant system described above (see section 2.4) and incubated for the times tested with the cells. At the end of incubation, the amount of oxidized DPD was determined at 560 nm using a spectrophotometer adapted to microscale measurement.

[3] = test system: P19 neurons; test: Protection of P19 neurons exposed to XA/XAO mediated oxidative stress (Alamar Blue viability); format: cell-based; settings: 1× concentration
Protocol: Culture and neuronal differentiation of P19 embryonal carcinoma cells were done according to the procedures of Jeannotte et al. (1997) with the following modifications for microscale adaptation of cultures to 96-well plates: cell aggregates obtained at day 4 of the treatment of P19 cells with retinoic acid were trypsinized with 0.025% trypsin-1 mM EDTA in PBS and subjected to mechanical passages to obtain individual cells which were seeded in gelatin-precoated microwells at a density of 0.7-1×10^5 cells per well. […]
Another protocol was also tested for XA/XAO system to generate a milder oxidative stress. […] At end of stress, PBS was changed for Neurobasal-minus AO medium and cells were incubated for 7 h, readily in the presence of Alamar Blue, for viability measurement.
as §1

SMILES | LD50 ([1]; mouse, 30 min) [mM] | Cell mortality ([1]; mouse, 30 min, 1 mM) | Inhibition of the oxidation of DPD by H2O2 [2] | Protection against neuronal death caused by XA/XAO ([3]; 500 μM XA, 50 mU/mL XAO, 0-90 min) | Protective effect against XA/XAO ([3]; from 30 to 90 min of incubation with XA/XAO) | Contribution to TRIAD protective effect ([1]; H2O2/Fe2+ prooxidant system) | Protection against oxidative stress caused by hydrogen peroxide [1] | Share of the protective effect of TRIAD ([1]; at low hydrogen peroxide concentrations) | Contribution to the neuroprotective action of TRIAD against H2O2-induced injury ([1]; cultured neurons) [%]
OO [hydrogen peroxide, reference compound] | 0.3 | approximately 70% |  |  |  |  |  |  | 
CC(=O)C(=O)[O-].[Na+] [pyruvate, sodium pyruvate] |  |  | substantial although not total antioxidant effect | protected only slightly less than TRIAD 1× | remained stable | contributed for most of TRIAD protective effect | substantial and stable protection up to 10 mM H2O2 | half | 60
Cc1c(C)c2c(c(C)c1O)CC[C@@](C)(CCC[C@H](C)CCC[C@H](C)CCCC(C)C)O2 [vitamin E, α-tocopherol] |  |  |  |  |  |  | did not provide protection |  | 
